Patent US20200390902A1, “Antibody-Drug Conjugates Targeted at Human Aspartyl-(Asparaginyl)-B-Hydroxylase (HAAH)” (Panacea Pharmaceuticals, Inc., priority 2017, published 2020)
Entries after “also recorded” stand apart in the source; their conditions may differ.

Tests used:
H460 cells [1] = assay: Lactate dehydrogenase (LDH) release assay, H460
Procedure: FIG. 6 depicts the effects of linker and payload on cytotoxicity to cancer cell H460. […] The Log of the antibody concentration in nM is shown on the X axis.
HAAH is highly expressed on the surface of cancer cells, but not on normal adult human cells. The specificity of SNS622-MC-DM1 was examined using human lung carcinoma cell line H460 and LONZA NHLF, a normal human lung fibroblasts (NHLF) cell line. Both cell lines were cultured in HG-DMEM (ThermoFisher Scientific Catalog No. 11965-092) supplemented with 20 mM HEPES (4-(2-hydroxyethyl)-1-piperazineethanesulfonic acid), 4 mM L-glutamine, 1 mM sodium pyruvate, 1× non-essential amino acids, 50 μg/ml gentamicin and 10% fetal bovine serum (FBS). H460 and NHLF cells were seeded into 96-well plates at 5,000 cells per well, following a 2-day FBS deprivation, and released by culture in complete culture medium containing 10% FBS. […] By 72 hours post treatment, cell death was determined by observing cell morphology using a phase contrast microscope at 150×.
The cell death was also quantified using lactate dehydrogenase (LDH) releasing assay. For the LDH assay, a mixture of a 35 μl aliquot of culture medium and 17.5 μl of substrate, enzyme, and dye solutions (Sigma, St. Louis, Mo., U.S.A.) was incubated at room temperature for 30 minutes, and absorbance was measured at 490 nm using a plate reader (ELx805; BioTek, Winooski, Vt., U.S.A.).

H460 cells [2] = assay: Cell morphology by phase contrast microscope, H460; format: cell-based, human; settings: H460, 32 nM, 72 hours
[3] = system: normal human lung fibroblasts (NHLF); assay: Cell morphology by phase contrast microscope, NHLF; format: cell-based; settings: 32 nM, 72 hours
[4] = system: MIA-PaCa-2 ASPH-derived tumors; assay: Mouse model inoculated with pancreas cancer cells, MIA-PaCa-2 ASPH tumors; format: in vivo
Procedure: (§1) The efficacy and specificity of SNS622-MC-DM1 was first examined in the mouse model with inoculation of pancreas cancer cells. In this model. 5 to 6-week-old female Nod Scid Gamma (NSG) mice (The Jackson Laboratory, Bar Harbor, Me., U.S.A.) were subcutaneously inoculated with 5×10^5 MIA-PaCa-2 EV cells (MIA-PaCa-2 cells transduced with an empty lentivirus vector) in 100 μl buffer solution on one shoulder, and with 5×10^5 MIA-PaCa-2 ASPH cells (MIA-PaCa-2 cells expressing high levels of ASPH) in 100 μl buffer solution on the other shoulder Two weeks post-inoculation, SNS622-MC-DM1 or IgG1-MC-DM1 was injected at 5 mg/kg through a tail vein once a week for 4 weeks. A representation of the schedule used for the ADC treatments is show n in FIG. 13.
The volume of the tumors inoculated with the MIA-PaCa-2 ASPH cells was measured starting at day 1 of treatment with ADC, and the results are shown in FIG. 15B.

[5] = system: MIA-PaCa-2 EV-derived tumors; assay: Mouse model inoculated with pancreas cancer cells, MIA-PaCa-2 EV tumors; format: in vivo; settings: 5 mg/kg, 29 days
Procedure: as §1
The response to treatment with SNS622-MC-DM1 of tumors derived from MIA-PaCa-2 HAAH cells and from MIA-PaCa-2 EV cells were compared in the same mouse.

H460 lysate = target: T1, H460 lysate (Homo sapiens, UniProt Q12797); assay: Binding of naked antibodies and ADCs to H460 lysate
T1 construct: A 96-well plate was coated with H460 lysate and dried at room temperature overnight; endogenous in cells; host or cells: H460 lysate (sonicated, supernatant)
T1 sequence (Q12797 1-758): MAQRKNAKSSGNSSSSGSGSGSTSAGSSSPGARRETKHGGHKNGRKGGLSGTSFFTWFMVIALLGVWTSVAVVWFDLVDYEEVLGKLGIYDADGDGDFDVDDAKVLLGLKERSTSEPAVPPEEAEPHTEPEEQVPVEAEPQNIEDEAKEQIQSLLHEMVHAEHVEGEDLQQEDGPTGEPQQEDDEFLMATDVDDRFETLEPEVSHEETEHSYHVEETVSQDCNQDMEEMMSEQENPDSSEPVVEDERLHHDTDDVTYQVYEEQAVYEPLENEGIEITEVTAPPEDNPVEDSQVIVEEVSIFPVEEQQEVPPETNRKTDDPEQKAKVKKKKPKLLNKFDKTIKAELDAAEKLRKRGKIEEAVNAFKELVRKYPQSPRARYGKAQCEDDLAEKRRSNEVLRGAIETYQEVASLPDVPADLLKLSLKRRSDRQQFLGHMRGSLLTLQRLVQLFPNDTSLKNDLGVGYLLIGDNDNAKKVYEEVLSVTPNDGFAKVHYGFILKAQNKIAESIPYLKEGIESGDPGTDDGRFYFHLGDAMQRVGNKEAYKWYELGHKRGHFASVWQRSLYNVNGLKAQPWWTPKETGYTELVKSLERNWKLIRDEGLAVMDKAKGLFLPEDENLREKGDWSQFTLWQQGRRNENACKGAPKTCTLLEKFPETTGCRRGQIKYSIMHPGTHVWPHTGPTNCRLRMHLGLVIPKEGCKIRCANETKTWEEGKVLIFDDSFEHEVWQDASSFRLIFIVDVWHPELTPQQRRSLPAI
Procedure: H460 cells were harvested, the cell density was adjusted to 2×10^6 cells/ml with PBS, and the resuspended cells sonicated on ice twice in 30 second pulses. After centrifugation at 300×g for 5 minutes the supernatant was collected and the protein concentration measured using a NANODROP spectrophotometer (ThermoFisher Scientific). A 96-well plate was coated with H460 lysate and dried at room temperature overnight. Following a 1-hour blockage with 1% non-fat dry milk in phosphate buffered saline (PBS), the plates were incubated for 45 minutes at 37° C. with each either 0.5 μg/ml IgG1λ (non-specific monoclonal antibody), IgG1λ-MC-DM1 (non-specific ADC), or SNS622-MC-DM1, or with 5 μg/ml SNS622. Following five PBS rinses to remove un-bound antibody. 1:100 goat anti-human IgG (8)-HRP was added and the plates incubated for 30 minutes at 37° C. Following five PBS rinses TMB substrate was added and, after incubation of the plates for 15 minutes at room temperature. Stop solution was added to terminate the reactions. The plates were read at 450 nm using a 96-well plate reader (ELx808, BioTek).

SNS622-MC-DM1: SNS622 anti-HAAH monoclonal antibody conjugated to mertansine (DM1) by the non-cleavable linker maleimidocaproyl (MC)
Increase in release of LDH compared to untreated cells (H460 cells [1]; H460, 32 nM, 72 hours): 39 × | CC50 (H460 cells [1]; read-out: LC50 of LDH, H460, 72 hours, reaction DAR 10:1): 0.036 µM | Cell density (morphology) (H460 cells [2]): reduction of cell density | Cell density (morphology) [3]: no significant reduction of cell density | Effect on MIA-PaCa-2 ASPH tumor volume / growth ([4]; 5 mg/kg, up to 29 days): robustly suppressed; also recorded: strongly suppressed growth of MIA-PaCa-2 ASPH-derived tumors | Reduction in tumor volume in comparison with IgG-MC-DM1 group ([4]; day 15, 5 mg/kg tail vein once a week): approximately 55% | Reduction in tumor volume in comparison with IgG-MC-DM1 group ([4]; day 22, 5 mg/kg tail vein once a week): approximately 53% | Reduction in tumor volume in comparison with IgG-MC-DM1 group ([4]; day 29, 5 mg/kg tail vein once a week): approximately 53% | Volume of MIA-PaCa-2 ASPH-derived tumors relative to MIA-PaCa-2 EV-derived tumors ([4]; treatment day 29, same mouse, 5 mg/kg): approximately 1/7 | Effect on MIA-PaCa-2 EV tumor growth [5]: grew fast throughout the duration of the experiment; also recorded: much lower effect on tumors derived from MIA-PaCa-2 EV cells | Percent binding (H460 lysate; percent of loading amount bound): 107% | Binding amount (H460 lysate; sonicated H460 (2E^6 cells/ml), loading 5.0 or 0.5 μg/ml): 5.35 µg/mL
